In patent publication US12257227B2, “Combination solution for treating chemotherapy refractory cancer” (1GLOBE BIOMEDICAL CO., LTD., priority 2018, dated 2025):

Experiments:
p-STAT3 and β-catenin = assay: Immunofluorescence of cancer stem cell markers in xenograft tumors; format: in vivo, mice; conditions: FIG. 5; tumors collected 24 hours after first dose; e.g. 50 mg/kg BID oral gavage
Procedure: Detection of the effects of 2-acetylnaphtho[2,3-b]furan-4,9-dione with or without paclitaxel on cancer stem cells for cancer stem cell markers in cancer xenograft animal models.
Human cancer cells were implanted subcutaneously into the right abdomen of 5 to 7 weeks athymic nude mice. When the tumor size reaches 200 mm^3, administer 2-acetylnaphtho[2,3-b]furan-4,9-dione (for example, 50 mg/kg (BID) by oral gavage (n=3/group)), paclitaxel, or 2-acetylnaphtho[2,3-b]furan-4,9-dione combined with paclitaxel to treat animals. Tumors were collected 24 hours after the first dose.
The harvested tissues were fixed in 3.7% neutral buffered formaldehyde at 4° C. overnight. Paraffin embedding were performed. Cut those into approximately 5 microns and fix them on positively charged glass slides. After baking and deparaffinization, the slides with tumor or control tissue were incubated in 10 mM sodium citrate (pH 6.0) for 10 minutes. After antigen retrieval, use primary antibody P-STAT3 (Rabbit, Cell Signaling, 1:100), β-catenin (Mouse, Santa Cruz, 1:400) to label slides overnight at 4° C., and then use Alexa Fluor Fluorescent dye-conjugated secondary antibody (1:500, Invitrogen). After mounting, the glass slides containing DAPI (Invitrogen) with Prolong mounting medium were detected under the 20× objective lens of a Zeiss fluorescence microscope, and analyzed with Zen software.

[1] = tested on: human pancreatic adenocarcinoma (Panc-1); assay: Xenograft tumor mouse model, tumor size during treatment; format: in vivo, mice; conditions: FIG. 4; 2-acetylnaphtho[2,3-b]furan-4,9-dione 100 mg/kg PO bid; gemcitabine 80 mg/kg IV q3d; mean of five tumors
Procedure: The effects of 2-acetylnaphtho[2,3-b]furan-4,9-dione, the compound of formula (I), gemcitabine, and a combination of 2-acetylnaphtho[2,3-b]furan-4,9-dione and gemcitabine were studied. Specifically, immunosuppressed mice with established human pancreatic adenocarcinoma (Panc-1) were treated with vehicle control, 2-acetylnaphtho[2,3-b]furan-4,9-dione (100 mg/kg, PO, bid), gemcitabine (Gemzar, 80 mg/kg, IV, q3d), or the combination of 2-acetylnaphtho[2,3-b]furan-4,9-dione and gemcitabine. Tumor size was evaluated periodically during treatment. Each point represents the mean±SEM of five tumors.

STAT3 pathway = conditions: according to WO2009/036059; read-out: STAT3 pathway activity, cellular IC50; cited from earlier work
[2] = tested on: advanced pancreatic cancer; assay: Phase II/III open label clinical study in patients who failed previous treatments (RECIST 1.1); format: in vivo, human; conditions: all patients receiving treatment
Text: In a phase II/III extended open label international multicenter experiment, search the effect of the compound of formula (I), 2-acetylnaphtho[2,3-b]furan-4,9-dioen combined with paclitaxel and a low dose of gemcitabine on patients with advanced pancreatic cancer who have failed previous treatments.
In the clinical study, we observed the anti-tumor activity and safety of 2-acetylnaphtho[2,3-b]furan-4,9-dione combined with paclitaxel weekly and a low dose of gemcitabine in patients with advanced pancreatic cancer who failed previous treatment. There are imaging disease progressions in patients who have received at least first-line systemic treatment in the past and failed. Previous treatments include gemcitabine-based single-agent or combination chemotherapy, and/or FOLFIRINOX/mFOLFIRINOX chemotherapy. […]
The remission and progression of the tumor were evaluated according to the RECIST 1.1 standard. […]

SMILES | expression (staining) of stem cell markers p-STAT3 and β-catenin (p-STAT3 and β-catenin) | tumor growth (tumor volume) [1] | IC50 (STAT3 pathway) [nM] | adverse events related to the compound [2]
CC(=O)c1cc2c(o1)C(=O)c1ccccc1C2=O [2-acetylnaphtho[2,3-b]furan-4,9-dione] | significantly reduce the expression of stem cell markers p-STAT3 and β-catenin | showed certain effects in inhibiting tumor growth | ~250 | mainly gastrointestinal adverse events
Nc1ccn([C@@H]2O[C@H](CO)[C@@H](O)C2(F)F)c(=O)n1 [gemcitabine, reference compound] |  | showed certain effects in inhibiting tumor growth |  | 
CC(=O)O[C@H]1C(=O)[C@@]2(C)[C@H]([C@H](OC(=O)c3ccccc3)[C@]3(O)C[C@H](OC(=O)[C@H](O)[C@@H](NC(=O)c4ccccc4)c4ccccc4)C(C)=C1C3(C)C)[C@]1(OC(C)=O)CO[C@@H]1C[C@@H]2O [paclitaxel, reference compound] | increased staining of stem cell markers |  |  | 
